8 compounds from US20220227772A1, “DEUTERATED TRIAZOLOPYRIMIDINES” (THE TRUSTEES OF THE UNIVERSITY OF PENNSYLVANIA, priority 2019, published 2022) can be followed below.

In data set [1] the test system is acetylated α-tubulin in QBI293 cells. Briefly: QBI293 cell-based microtubule stabilization assay, acetyl-tubulin ELISA. The conditions noted are these: 4 h incubation. On the procedure: (§1) The HEK293 cell subclone, QBI293, was maintained in DMEM supplemented with 10% fetal calf or bovine serum, 1% penicillin/streptomycin antibiotic solution and 1% glutamine at 37° C. in 5% CO2. Cells were plated into 6-well plates at a density of 800,000 cells/well. […] Test compounds were added at multiple concentrations to the test wells and incubated for 4 h. Subsequently, the media was removed and the cells were washed with 1 mL of ice-cold phosphate-buffered saline (PBS). After removal of PBS, 0.2 mL of ice-cold RIPA (0.5% sodium deoxycholate, 0.1% SDS, 1% NP-40, 5 mM EDTA, pH 8.0) containing protease inhibitor mix (1 μg/mL each of pepstatin, leupeptin, TLCK, TPCK and trypsin inhibitor), 1 mM PMSF and 1 μM trichostatin A was added to the wells. The wells were then scraped using a cell scraper and pipetted into 1.5 mL microfuge tubes. The tubes were sonicated with a handheld sonicator at 20× on a power setting of 2, followed by centrifugation for 30 min at 15,000 rpm at […]. Supernatants were removed and quantified for protein concentration and the acetyl-tubulin levels were determined using an ELISA as described.
(§2) The enzyme-linked immunosorbent assay (ELISA) was performed as previously described in Brunden, 2011, Pharmacological Research, 63:341, which is incorporated by reference herein. Briefly, 384-well plates were coated with 12G10 α-tubulin antibody (10 μg/mL; Covance, Princeton, N.J., USA) in 30 μL of cold 0.1 M bicarbonate buffer. 12G10 anti-α-tubulin antibody was originally deposited to the Developmental Studies Hybridoma Bank by Frankel and Nelsen. After overnight incubation at 4° C., the plates were blocked in Block Ace solution (Bio-Rad, Hercules, Calif., USA) for a minimum of 24 hours at 4° C. QBI-293 cell homogenates were diluted in C buffer (0.02 M sodium phosphate, 2 mM EDTA, 0.4 M NaCl, 1% BSA, 0.005% Thimerosal, pH 7.0). Typically, […] dilutions from 266 ng/μL to 22.2 ng/μL for QBI cells were performed and 30 μL of sample were added to wells in duplicate. Plates were sealed, centrifuged, and incubated overnight at 4° C. Following incubation with antigen, wells were aspirated and washed with PBS containing 0.05% Tween-20 and 0.005% thimerosal (PBS-Tween buffer). A horseradish peroxidase (HRP)-acetyl-tubulin reporter antibody was prepared by conjugating acetyl-tubulin primary antibody (Sigma Aldrich; clone 6-11B-1) to HRP using a commercially-available peroxidase labeling kit (Roche Applied Science, Indianapolis, Ind., USA). The HRP-acetyl-tubulin reporter antibody (1:1,000 v/v; Sigma Aldrich) or pre-conjugated HRP-alpha-tubulin (1:5,000 v/v; ProteinTech Group, Chicago, Ill., USA) diluted in C buffer were added to appropriate wells (30 μL per well). The plates were sealed and incubated at room temperature for 4 hours on a platform rocker, followed by washing with PBS-Tween buffer. Peroxidase substrate solution (30 μL; KPL, Gaithersburg, Md., USA) was added to each well and the reaction was quenched after 10 min with 10% phosphoric acid (30 μL). Plates were read on a SpectraMax M5 plate reader at an absorbance of 450 nm. The amount of acetyl- and alpha-tubulin protein in each sample was extrapolated using standard curves generated from serial dilutions of known protein standard (acetyl- or alpha-tubulin) concentrations.
(§3) The compounds were evaluated in a QBI293 cell-based MT assay as described in Kovalevich et al., J. Pharmacol. Exp. Ther., 2016, 357, 432-50, which is incorporated by reference herein. In summary, acetylated α-tubulin and total α-tubulin levels were determined by ELISA in cell lysates after 4 h of incubation with test compound at 1 and 10 μM (Table 1).
(An ELISA detects its analyte on a solid surface through an enzyme-linked reagent.)

In data set [2] the test system is total α-tubulin in QBI293 cells. Briefly: QBI293 cell-based MT assay, alpha-tubulin ELISA. The conditions noted are these: 4 h incubation. On the procedure:
as §1, §2, §3

Data set [3] in a line: Plasma and brain compound levels in wild-type mice. Type of data set: in vivo, mouse. The conditions noted are these: for Kp at 1 h: brain/plasma, read-out: B/P. On the procedure:
Mouse brains were homogenized in 10 mM ammonium acetate, pH 5.7 (1:2; w/v) using a handheld sonic homogenizer. Mouse plasma was obtained from blood that was collected into a 1.5 mL tube containing 0.5M EDTA solution and which was centrifuged for 10 minutes at 4500 g at […]. Aliquots (50 μL) of brain homogenates (50% w/v in 100 mM NH4OAc pH 5.75) or plasma were mixed with 0.2 ml of acetonitrile, centrifuged at 15,000 g, and the resulting supernatant was used for subsequent LC-MS/MS analysis. Compounds were detected using multiple reaction monitoring (MRM) of their specific collision-induced ion transitions. Samples were separated on an Agilent Zorbax C8 column (3.5 μm, 2.1×50 mm) at 35° C., with mobile phase A of 0.1% (v/v) formic acid, and B of acetonitrile with 0.1% (v/v) formic acid and a gradient of increasing B at 0.4 mL/min. To account for possible matrix effects on analytes, standard curves were generated for each compound from brain homogenate and plasma samples. The standard curve samples were extracted and analyzed in an identical fashion as the corresponding tissue-derived samples, and peak areas were plotted against concentration and a linear regression curve was used to obtain estimated concentrations of the tissue-derived samples using the peak areas. […]

The mark [4] stands for this setting: female, mouse, brain, intraperitoneal, 1 h @ 2.5 mg/kg, read-out: Brain conc.
The mark [5] stands for this setting: female, mouse, intraperitoneal, 1 h @ 2.5 mg/kg.
The mark [6] stands for this setting: female, mouse, plasma, intraperitoneal, 1 h @ 2.5 mg/kg, read-out: Plasma conc.
The mark [7] stands for this setting: scaled to 5 mg/kg, read-out: Brain conc.
The mark [8] stands for this setting: mouse, brain, 1 h @ 5.0 mg/kg, read-out: Brain conc.
The mark [9] stands for this setting: mouse, plasma, 1 h @ 5.0 mg/kg, read-out: Plasma conc.

Read-outs that look alike come from different tables or passages of the source.

For the compound `[2H][C@](C)(Nc1c(-c2c(F)cc(F)cc2F)c(Cl)nc2ncnn12)C(C)(C)C` (single isomer, unassigned), the “AcTub (acetylated-tubulin relative to vehicle-treated cells)” value in data set [1] (1 μM) worked out at 5.71 ± 0.13; in data set [1] (10 μM), 7.69 ± 0.49. Besides, the entries for the “αTub (α-tubulin relative to vehicle-treated cells)” value in data set [2] (1 μM) and in data set [2] (10 μM) were 1.00 ± 0.03 and 1.05 ± 0.09, respectively. The concentration at 1 h in data set [3] (setting [4]) came out at 296 ± 48 nM; in data set [3] (setting [6]), 104 ± 14 nM; in data set [3] (setting [7]) it was 592 nM. Besides, in data set [3] (setting [5]), the Kp at 1 h is 2.9. In data set [3] (scaled to 5 mg/kg), this compound gave a Plasma conc. of 208 nM.
Turning to `[2H][C@@](C)(Nc1c(-c2c(F)cc(F)cc2F)c(Cl)nc2ncnn12)C(C)(C)C` (single isomer, unassigned), the “AcTub (acetylated-tubulin relative to vehicle-treated cells)” value in data set [1] (1 μM) came out at 1.10 ± 0.07; in data set [1] (10 μM), 2.92 ± 0.04. For the same compound, the entries for the “αTub (α-tubulin relative to vehicle-treated cells)” value in data set [2] (1 μM) and in data set [2] (10 μM) were 1.07 ± 0.05 and 0.85 ± 0.05, respectively.
Consider `[2H]C(C)(Nc1c(-c2c(F)cc(F)cc2F)c(Cl)nc2ncnn12)C(C)C` (single isomer, unassigned) [5-chloro-N-(3-methylbutan-2-yl-2-d)-6-(2,4,6-trifluorophenyl)-[1,2,4]triazolo[1,5-a]pyrimidin-7-amine], for which the results for the concentration at 1 h in data set [3] (setting [4]) and in data set [3] (setting [6]) were 551 ± 56 nM and 199 ± 46 nM, respectively. Also, the Kp at 1 h in data set [3] (setting [5]) was 2.8.
Take `[2H]C(C)(Nc1c(-c2c(F)cc(F)cc2F)c(Cl)nc2ncnn12)C(C)C` (single isomer, unassigned) [5-chloro-N-(3-methylbutan-2-yl-2-d)-6-(2,4,6-trifluorophenyl] [5-chloro-N-(3-methylbutan-2-yl-2-d)-6-(2,4,6-trifluorophenyl)-[1,2,4]triazolo[1,5-a]pyrimidin-7-amine]: the “αTub (α-tubulin relative to vehicle-treated cells)” value turned out to be 1.16 ± 0.04 in data set [2] (1 μM, enantiomer 1); 0.93 ± 0.05 in data set [2] (1 μM, enantiomer 2); 1.20 ± 0.01 in data set [2] (10 μM, enantiomer 1); 0.93 ± 0.02 in data set [2] (10 μM, enantiomer 2). The compound also displayed a Plasma conc. in data set [3] (scaled to 5 mg/kg) of 398 nM. Further, the concentration at 1 h in data set [3] (setting [7]) was found to be 1102 nM.
On to `C[C@@H](Nc1c(-c2c(F)cc(F)cc2F)c(Cl)nc2ncnn12)C(C)(C)C` [(R)-5-chloro-N-(3,3-dimethylbutan-2-yl)-6-(2,4,6-trifluorophenyl)-[1,2,4]triazolo[1,5-a]pyrimidin-7-amine], for which the results for the “AcTub (acetylated-tubulin relative to vehicle-treated cells)” value in data set [1] (1 μM) and in data set [1] (10 μM) were 5.11 ± 0.47 and 7.19 ± 0.31, respectively. Besides, the figures for the “αTub (α-tubulin relative to vehicle-treated cells)” value in data set [2] (1 μM) and in data set [2] (10 μM) were 1.00 ± 0.06 and 1.03 ± 0.12, respectively. Further, the concentration at 1 h in data set [3] (setting [8]) turned out to be 153 ± 33 nM; in data set [3] (setting [9]), 69 ± 11 nM. Further, the Kp at 1 h in data set [3] (mouse, 1 h @ 5.0 mg/kg) stood at 2.2.
`CC(C)[C@@H](C)Nc1c(-c2c(F)cc(F)cc2F)c(Cl)nc2ncnn12` [(R)-5-chloro-N-(3-methylbutan-2-yl)-6-(2,4,6-trifluorophenyl)-[1,2,4]triazolo[1,5-a]pyrimidin-7-amine]: the “AcTub (acetylated-tubulin relative to vehicle-treated cells)” value is 2.08 ± 0.09 in data set [1] (1 μM) and 2.54 ± 0.10 in data set [1] (10 μM). Further, the results for the “αTub (α-tubulin relative to vehicle-treated cells)” value in data set [2] (1 μM) and in data set [2] (10 μM) were 1.10 ± 0.20 and 0.91 ± 0.17, respectively. Further, the concentration at 1 h is 812 ± 61 nM in data set [3] (setting [8]) and 320 ± 93 nM in data set [3] (setting [9]). For the same compound, the Kp at 1 h in data set [3] (mouse, 1 h @ 5.0 mg/kg) is 2.5.
Consider `C[C@H](Nc1c(-c2c(F)cc(F)cc2F)c(Cl)nc2ncnn12)C(C)(C)C` [(S)-5-chloro-N-(3,3-dimethylbutan-2-yl)-6-(2,4,6-trifluorophenyl)-[1,2,4]triazolo[1,5-a]pyrimidin-7-amine], for which the figures for the “AcTub (acetylated-tubulin relative to vehicle-treated cells)” value in data set [1] (1 μM) and in data set [1] (10 μM) were 1.03 ± 0.01 and 3.05 ± 0.18, respectively. The “αTub (α-tubulin relative to vehicle-treated cells)” value in data set [2] (1 μM) is 0.80 ± 0.06; in data set [2] (10 μM) it was 0.83 ± 0.06.
As to `CC(C)[C@H](C)Nc1c(-c2c(F)cc(F)cc2F)c(Cl)nc2ncnn12` [(S)-5-chloro-N-(3-methylbutan-2-yl)-6-(2,4,6-trifluorophenyl)-[1,2,4]triazolo[1,5-a]pyrimidin-7-amine], the “AcTub (acetylated-tubulin relative to vehicle-treated cells)” value is 1.22 ± 0.10 in data set [1] (1 μM) and 2.46 ± 0.18 in data set [1] (10 μM). The figures for the “αTub (α-tubulin relative to vehicle-treated cells)” value in data set [2] (1 μM) and in data set [2] (10 μM) were 0.94 ± 0.04 and 0.88 ± 0.02, respectively.
